Key:
Type in all cases: biochemical
CHK1 (h) = target: T1, CHK1 (h) (Homo sapiens, UniProt O14757); assay: CHK1 (h) kinase assay (Upstate, 33P-ATP filtermat); conditions: 100 uM of inhibitor; ATP 90 uM
T1 construct: purchased Upstate Ltd
T1 sequence (O14757 1-476): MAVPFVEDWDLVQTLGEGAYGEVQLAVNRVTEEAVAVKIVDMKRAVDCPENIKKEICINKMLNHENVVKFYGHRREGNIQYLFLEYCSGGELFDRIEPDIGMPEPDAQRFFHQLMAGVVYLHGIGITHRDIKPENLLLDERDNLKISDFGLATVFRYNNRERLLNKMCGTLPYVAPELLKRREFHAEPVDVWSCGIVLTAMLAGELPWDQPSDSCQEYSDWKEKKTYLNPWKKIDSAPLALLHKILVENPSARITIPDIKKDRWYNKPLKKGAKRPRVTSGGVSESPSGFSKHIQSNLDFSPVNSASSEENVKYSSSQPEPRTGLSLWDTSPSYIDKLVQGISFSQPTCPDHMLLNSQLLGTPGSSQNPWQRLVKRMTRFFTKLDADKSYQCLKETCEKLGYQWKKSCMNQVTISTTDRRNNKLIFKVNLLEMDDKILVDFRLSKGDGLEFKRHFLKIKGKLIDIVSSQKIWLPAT
Method: (§1) The compounds of the invention prepared in Examples 1-32 were tested for kinase inhibition against a range of common protein kinases. All kinase assays were conducted at Upstate Ltd, Gemini Crescent, Dundee Technology Park, Dundee, DD2 1SW, UK in accordance with its standard protocols as follows:
In a final reaction volume of 25 μl, CHK1 (h) (5-10 mU) is incubated with 8 mM MOPS pH 7.0, 0.2 mM EDTA, 200 μM […], 10 mM MgAcetate and […]-33P-ATP] (specific activity approx. 500 cpm/pmol, concentration as required). The reaction is initiated by the addition of the MgATP mix. After incubation for 40 minutes at room temperature, the reaction is stopped by the addition of 5 μl of a 3% phosphoric acid solution. 10 μl of the reaction is then spotted onto a P30 filtermat and washed three times for 5 minutes in 75 mM phosphoric acid and once in methanol prior to drying and scintillation counting.
(§2) Data for compounds. ATP concentrations are: Arg=45 uM; abl=45 uM; AuroraA=15 uM; Chk1=90 uM; KDR=90 uM; P70S6=15 uM. Figures represent the % inhibition when tested at 100 uM of inhibitor.

Aurora-A (h) = target: T2, Aurora-A (h) (Homo sapiens, UniProt O14965); assay: Aurora-A (h) kinase assay (Upstate, 33P-ATP filtermat); conditions: 100 uM of inhibitor, ATP 15 uM; for inhibition at 100 µM: read-out: AuroraA (h) % inhibition
T2 construct: purchased Upstate Ltd
T2 sequence (O14965 1-403): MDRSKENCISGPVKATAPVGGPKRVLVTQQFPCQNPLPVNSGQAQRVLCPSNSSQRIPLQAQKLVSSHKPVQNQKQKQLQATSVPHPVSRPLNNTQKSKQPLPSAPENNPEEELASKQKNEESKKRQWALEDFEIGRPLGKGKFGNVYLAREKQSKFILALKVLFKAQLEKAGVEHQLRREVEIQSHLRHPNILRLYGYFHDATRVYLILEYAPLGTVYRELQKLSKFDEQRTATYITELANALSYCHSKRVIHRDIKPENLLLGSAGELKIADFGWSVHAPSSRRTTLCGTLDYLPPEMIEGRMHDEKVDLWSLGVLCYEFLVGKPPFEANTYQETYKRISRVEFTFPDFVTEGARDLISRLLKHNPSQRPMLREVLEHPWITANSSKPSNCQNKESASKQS
Method: as §1
In a final reaction volume of 25 μl, Aurora-A (h) (5-10 mU) is incubated with 8 mM MOPS pH 7.0, 0.2 mM EDTA, 200 μM LRRASLG (Kemptide), 10 mM MgAcetate and […]-33P-ATP] (specific activity approx. 500 cpm/pmol, concentration as required). The reaction is initiated by the addition of the MgATP mix. After incubation for 40 minutes at room temperature, the reaction is stopped by the addition of 5 μl of a 3% phosphoric acid solution. 10 μl of the reaction is then spotted onto a P30 filtermat and washed three times for 5 minutes in 50 mM phosphoric acid and once in methanol prior to drying and scintillation counting.
as §2

Abl (h) = target: T3, Abl (h) (Homo sapiens, UniProt P00519); assay: Abl (h) kinase assay (Upstate, 33P-ATP filtermat); conditions: 100 uM of inhibitor; ATP 45 uM
T3 construct: purchased Upstate Ltd
Method: as §1
(§3) In a final reaction volume of 25 μl, Abl (h) (5-10 mU) is incubated with 8 mM MOPS pH 7.0, 0.2 mM EDTA, 50 μM EAIYAAPFAKKK, 10 mM MgAcetate and [[…]-33P-ATP] (specific activity approx. 500 cpm/pmol, concentration as required). The reaction is initiated by the addition of the MgATP mix. After incubation for 40 minutes at room temperature, the reaction is stopped by the addition of 5 μl of a 3% phosphoric acid solution. 10 μl of the reaction is then spotted onto a P30 filtermat and washed three times for 5 minutes in 75 mM phosphoric acid and once in methanol prior to drying and scintillation counting.
as §2

Arg (h) = target: T4, Arg (h) (Homo sapiens, UniProt P42684); assay: Arg (h) kinase assay (Upstate, 33P-ATP filtermat); conditions: 100 uM of inhibitor; ATP 45 uM
T4 construct: purchased Upstate Ltd
Method: as §1
as §3, with “Arg” for “Abl”
as §2

p70S6K (h) = target: T5, p70S6K (h) (Homo sapiens, UniProt P23443); assay: p70S6K (h) kinase assay (Upstate, 33P-ATP filtermat); conditions: 100 uM of inhibitor, ATP 15 uM; for inhibition at 100 µM: read-out: P70S6 (h) % inhibition
T5 construct: purchased Upstate Ltd
Method: as §1
as §3, with “μl, p70S6K” for “μl, Abl”, “EDTA, 100” for “EDTA, 50”, “μM KKRNRTLTV,” for “μM EAIYAAPFAKKK,”
as §2

KDR (h) = target: T6, KDR (h) (Homo sapiens, UniProt P35968); assay: KDR (h) kinase assay (Upstate, 33P-ATP filtermat); conditions: 100 uM of inhibitor; ATP 90 uM
T6 construct: purchased Upstate Ltd
Method: as §1
as §3, with “KDR” for “Abl”, “0.33 mg/ml myelin basic protein,” for “50 μM EAIYAAPFAKKK,”
as §2

T4 sequence (P42684 whole entry): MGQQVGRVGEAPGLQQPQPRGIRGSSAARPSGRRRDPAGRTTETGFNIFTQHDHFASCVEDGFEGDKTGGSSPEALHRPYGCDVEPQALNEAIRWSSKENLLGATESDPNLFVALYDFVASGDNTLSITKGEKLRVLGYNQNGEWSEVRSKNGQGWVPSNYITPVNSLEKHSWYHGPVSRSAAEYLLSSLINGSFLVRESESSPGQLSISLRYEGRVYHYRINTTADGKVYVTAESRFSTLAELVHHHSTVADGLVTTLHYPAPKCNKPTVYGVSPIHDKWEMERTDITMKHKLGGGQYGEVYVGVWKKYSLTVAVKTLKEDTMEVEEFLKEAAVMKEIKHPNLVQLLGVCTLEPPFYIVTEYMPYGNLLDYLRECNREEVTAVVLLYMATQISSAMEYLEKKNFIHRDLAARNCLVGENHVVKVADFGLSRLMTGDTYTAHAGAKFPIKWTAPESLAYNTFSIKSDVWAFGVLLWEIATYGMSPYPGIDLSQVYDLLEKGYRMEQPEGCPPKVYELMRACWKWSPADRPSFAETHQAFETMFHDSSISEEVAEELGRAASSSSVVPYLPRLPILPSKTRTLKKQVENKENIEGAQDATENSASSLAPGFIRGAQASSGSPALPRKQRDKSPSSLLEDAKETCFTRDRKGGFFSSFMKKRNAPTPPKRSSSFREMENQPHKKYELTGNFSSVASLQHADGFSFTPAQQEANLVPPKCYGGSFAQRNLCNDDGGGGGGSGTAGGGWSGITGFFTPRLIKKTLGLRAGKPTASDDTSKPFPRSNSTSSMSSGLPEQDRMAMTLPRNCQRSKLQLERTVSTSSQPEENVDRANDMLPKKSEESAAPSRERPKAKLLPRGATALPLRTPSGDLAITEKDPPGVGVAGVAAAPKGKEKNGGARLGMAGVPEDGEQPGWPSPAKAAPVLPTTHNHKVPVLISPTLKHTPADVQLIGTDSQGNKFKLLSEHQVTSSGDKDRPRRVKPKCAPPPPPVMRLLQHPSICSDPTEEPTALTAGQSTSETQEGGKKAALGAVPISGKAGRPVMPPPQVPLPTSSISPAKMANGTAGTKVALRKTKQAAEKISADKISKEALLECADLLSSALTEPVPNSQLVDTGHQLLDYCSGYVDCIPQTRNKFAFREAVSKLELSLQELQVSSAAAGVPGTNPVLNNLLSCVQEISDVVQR
T3 sequence (P00519 whole entry): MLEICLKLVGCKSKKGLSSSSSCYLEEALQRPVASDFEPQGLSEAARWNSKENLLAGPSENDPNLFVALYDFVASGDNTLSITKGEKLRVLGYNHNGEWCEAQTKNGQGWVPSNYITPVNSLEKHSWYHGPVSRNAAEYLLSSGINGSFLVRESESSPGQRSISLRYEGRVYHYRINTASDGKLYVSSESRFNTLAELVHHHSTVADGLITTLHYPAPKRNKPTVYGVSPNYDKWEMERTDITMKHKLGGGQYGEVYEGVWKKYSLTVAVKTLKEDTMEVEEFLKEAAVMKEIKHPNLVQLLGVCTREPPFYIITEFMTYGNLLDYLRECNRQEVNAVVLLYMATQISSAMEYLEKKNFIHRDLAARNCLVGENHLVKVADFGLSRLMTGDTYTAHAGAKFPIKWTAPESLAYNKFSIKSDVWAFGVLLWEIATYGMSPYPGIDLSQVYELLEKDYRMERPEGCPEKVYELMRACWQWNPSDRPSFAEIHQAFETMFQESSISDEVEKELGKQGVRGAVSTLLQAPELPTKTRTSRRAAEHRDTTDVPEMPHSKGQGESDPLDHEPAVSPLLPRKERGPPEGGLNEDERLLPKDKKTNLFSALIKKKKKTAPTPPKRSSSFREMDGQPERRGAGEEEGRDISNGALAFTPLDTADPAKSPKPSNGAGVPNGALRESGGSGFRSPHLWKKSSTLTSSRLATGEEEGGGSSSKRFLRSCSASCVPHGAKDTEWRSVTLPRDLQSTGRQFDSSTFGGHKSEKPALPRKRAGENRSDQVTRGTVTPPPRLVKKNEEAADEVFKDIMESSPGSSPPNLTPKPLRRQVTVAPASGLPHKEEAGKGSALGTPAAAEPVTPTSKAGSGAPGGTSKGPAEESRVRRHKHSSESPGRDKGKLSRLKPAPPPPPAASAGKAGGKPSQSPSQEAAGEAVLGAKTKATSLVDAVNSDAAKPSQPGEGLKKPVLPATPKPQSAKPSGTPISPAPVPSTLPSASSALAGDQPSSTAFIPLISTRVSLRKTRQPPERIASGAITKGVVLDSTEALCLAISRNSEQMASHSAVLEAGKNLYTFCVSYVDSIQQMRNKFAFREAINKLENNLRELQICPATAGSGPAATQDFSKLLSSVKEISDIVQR
T5 sequence (P23443 whole entry): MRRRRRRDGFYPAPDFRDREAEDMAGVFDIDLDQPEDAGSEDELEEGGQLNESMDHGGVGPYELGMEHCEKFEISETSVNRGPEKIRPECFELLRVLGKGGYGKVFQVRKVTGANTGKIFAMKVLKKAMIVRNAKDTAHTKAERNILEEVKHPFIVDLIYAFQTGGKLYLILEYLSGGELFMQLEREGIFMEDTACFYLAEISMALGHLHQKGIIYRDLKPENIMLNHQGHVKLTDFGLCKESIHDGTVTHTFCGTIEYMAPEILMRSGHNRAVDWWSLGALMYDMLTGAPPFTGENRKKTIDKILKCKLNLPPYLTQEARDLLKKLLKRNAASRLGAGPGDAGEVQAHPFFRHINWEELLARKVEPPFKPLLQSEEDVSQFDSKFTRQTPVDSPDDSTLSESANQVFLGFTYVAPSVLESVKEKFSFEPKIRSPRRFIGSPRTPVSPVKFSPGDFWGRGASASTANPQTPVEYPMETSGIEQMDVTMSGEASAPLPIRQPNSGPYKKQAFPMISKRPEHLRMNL
T6 sequence (P35968 20-1356): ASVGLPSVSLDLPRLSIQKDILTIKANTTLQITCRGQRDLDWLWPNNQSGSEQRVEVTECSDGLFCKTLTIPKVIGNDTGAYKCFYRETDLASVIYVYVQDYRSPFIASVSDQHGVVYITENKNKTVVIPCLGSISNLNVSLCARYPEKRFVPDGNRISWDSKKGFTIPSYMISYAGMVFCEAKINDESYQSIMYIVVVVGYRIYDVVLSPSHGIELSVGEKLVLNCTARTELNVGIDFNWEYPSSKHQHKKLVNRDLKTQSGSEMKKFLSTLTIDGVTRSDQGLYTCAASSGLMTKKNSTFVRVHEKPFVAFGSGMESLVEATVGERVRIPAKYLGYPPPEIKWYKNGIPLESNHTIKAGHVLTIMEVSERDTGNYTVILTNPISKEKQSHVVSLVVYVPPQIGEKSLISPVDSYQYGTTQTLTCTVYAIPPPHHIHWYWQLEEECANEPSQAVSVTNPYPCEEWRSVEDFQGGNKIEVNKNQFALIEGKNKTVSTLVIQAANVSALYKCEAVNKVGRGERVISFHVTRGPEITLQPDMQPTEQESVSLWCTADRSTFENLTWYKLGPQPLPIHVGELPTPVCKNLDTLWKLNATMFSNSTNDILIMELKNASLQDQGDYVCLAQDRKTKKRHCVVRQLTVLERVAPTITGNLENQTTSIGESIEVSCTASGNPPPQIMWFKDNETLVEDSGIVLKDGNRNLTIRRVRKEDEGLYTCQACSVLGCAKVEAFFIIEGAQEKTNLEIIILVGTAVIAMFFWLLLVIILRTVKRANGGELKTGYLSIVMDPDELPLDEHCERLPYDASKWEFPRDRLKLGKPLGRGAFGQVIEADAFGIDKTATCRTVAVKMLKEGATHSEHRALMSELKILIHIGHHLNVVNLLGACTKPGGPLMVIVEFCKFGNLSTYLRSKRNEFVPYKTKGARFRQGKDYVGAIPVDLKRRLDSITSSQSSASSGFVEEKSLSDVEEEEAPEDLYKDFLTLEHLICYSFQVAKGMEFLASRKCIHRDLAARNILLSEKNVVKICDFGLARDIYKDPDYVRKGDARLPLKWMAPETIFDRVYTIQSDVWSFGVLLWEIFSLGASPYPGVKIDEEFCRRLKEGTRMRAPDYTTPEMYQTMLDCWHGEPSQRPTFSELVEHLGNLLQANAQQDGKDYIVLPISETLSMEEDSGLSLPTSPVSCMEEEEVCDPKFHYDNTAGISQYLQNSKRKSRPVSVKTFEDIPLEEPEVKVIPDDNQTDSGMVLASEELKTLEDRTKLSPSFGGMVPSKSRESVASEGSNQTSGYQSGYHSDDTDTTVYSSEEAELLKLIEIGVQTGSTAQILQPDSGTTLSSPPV

inhibition at 100 µM (CHK1 (h))	inhibition at 100 µM (Aurora-A (h))	inhibition at 100 µM (Abl (h))	inhibition at 100 µM (Arg (h))	Chk1 (h) % inhibition (CHK1 (h))	AuroraA (h) % inhibition (Aurora-A (h))	Abl (h) % inhibition (Abl (h))	Arg (h) % inhibition (Arg (h))	inhibition at 100 µM (p70S6K (h))	KDR (h) % inhibition (KDR (h))	P70S6 (h) % inhibition (p70S6K (h))	inhibition at 100 µM (KDR (h))	SMILES
33%	41%	89%	92%	–	–	–	–	–	–	–	–	c1ccc2nc(Nc3ccc(N4CCNCC4)cc3)nnc2c1 [Example 6, Benzo[1,2,4]triazin-3-yl-(4-piperazin-1-yl-phenyl)-amine]
–	–	–	–	7%	24%	83%	78%	–	–	–	–	[O-][n+]1nc(Nc2ccc(N3CCNCC3)cc2)nc2ccccc21 [Example 5, (1-Oxy-benzo[1,2,4]triazin-3-yl)-(4-piperazin-1-yl-phenyl)-amine]
21%	68%	65%	71%	–	–	–	–	9%	–	–	–	c1cncc(Nc2nnc3ccccc3n2)c1 [Example 3, Benzo[1,2,4]triazin-3-yl-pyridin-3-yl-amine]
32%	37%	36%	40%	–	–	–	–	–	–	–	–	Cc1cc(Nc2nnc3ccccc3n2)n[nH]1 [Example 11, Benzo[1,2,4]triazin-3-yl-(5-methyl-1H-pyrazol-3-yl)-amine]
–	–	–	–	31%	98%	86%	81%	–	98%	99%	–	Nc1nc2ccc(-c3cn[nH]c3)cc2[n+]([O-])n1 [Example 7, 1-Oxy-7-(1H-pyrazol-4-yl)-benzo[1,2,4]triazin-3-ylamine]
26%	100%	87%	82%	–	–	–	–	97%	–	–	96%	Nc1nnc2cc(-c3cn[nH]c3)ccc2n1 [Example 8, 7-(1H-Pyrazol-4-yl)-benzo[1,2,4]triazin-3-ylamine]

SMILES	inhibition at 100 µM (CHK1 (h))	inhibition at 100 µM (Aurora-A (h))	inhibition at 100 µM (Abl (h))	inhibition at 100 µM (Arg (h))	Chk1 (h) % inhibition (CHK1 (h))	AuroraA (h) % inhibition (Aurora-A (h))	Abl (h) % inhibition (Abl (h))	Arg (h) % inhibition (Arg (h))	inhibition at 100 µM (p70S6K (h))	KDR (h) % inhibition (KDR (h))	P70S6 (h) % inhibition (p70S6K (h))	inhibition at 100 µM (KDR (h))
[O-][n+]1nc(Nc2ccc(N3CCNCC3)nc2)nc2ccccc21 [Example 20, (1-Oxy-benzo[1,2,4]triazin-3-yl)-(6-piperazin-1-yl-pyridin-3-yl)-amine]	–	–	–	–	1%	52%	72%	77%	–	–	–	–
